The values below come from US6420121B1, “Prevention of cell migration initiation with CMV US28 receptor antagonists” (Oregon Health Sciences University, priority 1998, dated 2002).

“Also recorded” adds a separate entry of the source.

The test system of experiment [1] is US28 transfected smooth muscle cell. Briefly: US28 SMC migration with PTK pathway inhibitors (FIG. 15). The class given is cell-based.
A further experiment concerns HCMV infected SMCs. Briefly: HCMV-induced SMC migration assay (migration chamber). The class given is cell-based. The following applies: for inhibition of HCMV-induced SMC migration: SMCs infected with HCMV, FIG. 7 and FIG. 9. From the text:
The present invention provides an assay for determining therapeutic activity of US28 receptor antagonists, comprising (a) obtaining and isolating smooth muscle cells into a first chamber of a migration device, wherein the first migration chamber comprises growth media chambers and is defined by a first side of a membrane and chamber walls, and wherein the migration device comprises a second chamber defined by the second side of the membrane and having an enclosed space; (b) infecting the smooth muscle cells with human cytomegalovirus (HCVM) containing a gene encoding the US28 receptor; (c) adding a candidate therapeutic agent to the first chamber; and (d) determining the amount of cellular migration into the second chamber, whereby inhibition of cellular migration of infected smooth muscle cells indicates therapeutic activity. Preferably, the smooth muscle cells are isolated from pulmonary arteries. Preferably, the membrane has a pore size of from about 2 to about 10 microns. Most preferably, the membrane pore size is about 3 microns. Preferably the amount of cellular migration is determined by an assay for counting the number of smooth muscle cells in the second chamber wherein the assay for counting the number of smooth muscle cells is selected from the group consisting of microscopic cell counting per unit area, radiolabeling the smooth muscle cells and counting radioactivity in the second chamber, attaching a fluorescent probe to the smooth muscle cells and measuring fluorescence within the second chamber, and combinations thereof.
SMCs are cultured in the upper chamber and infected with HCMV (preferably at or near MOI11). Only cells that are infected will migrate through a filter (preferably 3 micron) to the lower chamber. The cells in the lower chamber are counted by microscopy or labeled with a radioactive or fluorescent label.
The present invention provides an assay for determining therapeutic activity of US28 receptor antagonists, comprising (a) obtaining and isolating smooth muscle cells into a first chamber of a migration device, wherein the first migration chamber comprises growth media chambers and is defined by a first side of a membrane and chamber walls, and wherein the migration device comprises a second chamber defined by the second side of the membrane and having an enclosed space; (b) infecting the smooth muscle cells with human cytomegalovirus (HCVM) containing a gene encoding the US28 receptor; (c) adding a candidate therapeutic agent to the first chamber; and (d) determining the amount of cellular migration into the second chamber, whereby inhibition of cellular migration of infected smooth muscle cells indicates therapeutic activity. Preferably, the smooth muscle cells are isolated from pulmonary arteries. […]

Consider `CO[C@H]1[C@@H](OC)C[C@H](C)[C@@H](OC)C2=CC(=O)C=C(NC(=O)/C(C)=C/C=C\[C@H](OC)[C@@H](OC(N)=O)/C(C)=C/[C@@H]1C)C2=O` [herbimycin A, Herbimycin A], for which the “inhibition of US28 SMC migration” value in experiment [1] was “effective in inhibiting US28 transfected smooth muscle cell migration”.

For the molecule Pertussis toxin, the “inhibition of US28 SMC migration” value in experiment [1] was “had no effect”. Consider `C[C@@H]1C[C@@H]([C@H](O)CC2CC(=O)NC(=O)C2)C(=O)[C@@H](C)C1` [cyclohexamide], for which the “inhibition of HCMV-induced SMC migration” value in the experiment with HCMV infected SMCs was “blocked”. As to PDGF, in the experiment with HCMV infected SMCs (SMCs treated with PDGF, compared with HCMV infection, FIG. 7), the “induction of cell migration in SMCs” value is reported as “did not cause cell migration in SMCs to nearly the extent as HCMV infection”. `O=C(O)P(=O)(O)O` [foscarnet]: the “inhibition of HCMV-induced SMC migration” value in the experiment on HCMV infected SMCs was “did not inhibit SMC migration; also recorded: did not inhibit migration of infected smooth muscle cells”.

B1: RANTES: C-C chemokine, US28 receptor ligand (protein, UniProt P13501 24-91, looked up)
C-C motif chemokine 5: SPYSSDTTPCCFAYIARPLPRAHIKEYFYTSGKCSNPAVVFVTRKNRQVCANPEKKWVREYINSLEMS
In the case of B1, the “SMC migration on addition of chemokine” value with HCMV infected SMCs (HCMV-GFP-infected SMCs, FIG. 12) was “increased SMC migration in a dose-dependent manner”.
